In US10765647B2, “Composition for treating diabetes, containing extract of yukmijihwangtang” (COMPREHENSIVE AND INTEGRATIVE MEDICINE INSTITUTE, priority 2013, dated 2020):

Experiments:
STZ-induced diabetes rat [1] = assay: STZ-induced diabetes rats: body weight and body weight gain; format: in vivo, Sprague-Dawley (SD) rats; settings: vs STZ control, YMJHT 400 mg/kg
Experimental: (§1) As the laboratory animals, Sprague-Dawley (SD), Slc:SD rats (6-week-old females, SLC, Shizuoka, Japan) were used, an experiment method was briefly illustrated in FIG. 5A, and the design of experimental groups is shown in FIG. 5B.
(§2) 105 SD rats were purchased, and 21 days after STZ administration, only rats having uniform body weights ([…]) and blood sugar levels (257˜358 mg/dl) were selected. Among those, 8 rats per group were used in the experiment, and separate 8 rats were also prepared as the intact vehicle control (body weight: 200˜262 g; blood sugar level: 88˜100 mg/dl).
(§3) STZ was diluted with 50 mM citrate buffer (pH 6.0), and the resultant diluent was peritoneally administered once at a dose of 60 mg/kg/5 ml to induce diabetes, and in the intact vehicle control, instead of STZ, the same dose of citrate buffer was solely administered in the same route.
(1) Change in body weight: Body weight gains during diabetes induction and administration of a candidate material for 28 days

STZ-induced diabetes rat [2] = assay: STZ-induced diabetes rats: antidiabetic effect (blood sugar, pancreas); format: in vivo, Sprague-Dawley (SD) rats; settings: vs STZ control, YMJHT 400 mg/kg
Experimental: as §1, §2, §3
(2) Antidiabetic effect: Change in blood sugar level, morphological change in pancreas tissue—changes in the number and diameter of pancreatic islets, and numerical changes in insulin and glucagon immunoreactive cells
(§4) To clarify degrees of inducing diabetes and diabetic complications, blood sugar levels was measured at 21 days after the STZ administration and 28 days after the administration of a candidate material, and then a difference between them was estimated. Also, to minimize a difference between organ weights depending on a body weight, an absolute weight was measured, and then a ratio to the body weight, that is, a relative weight, was calculated.

STZ-induced diabetes rat [3] = assay: STZ-induced diabetes rats: liver protecting effect; format: in vivo, Sprague-Dawley (SD) rats; settings: vs STZ control; single treated: metformin 500 mg/kg, YMJHT 400 mg/kg; daily 28 days
Experimental: as §1, §2, §3
(3) Liver protecting effect: changes in the liver weight, blood AST and ALT contents, histopathological findings on the liver—(Degeneration rate of the liver: ratio of degenerated liver cells per mm^2 of hepatocyte, number of liver cells: number of liver cells observed per mm^2 of hepatocyte).
as §4

STZ-induced diabetes rat [4] = assay: STZ-induced diabetes rats: kidney protecting effect; format: in vivo, Sprague-Dawley (SD) rats; settings: vs STZ control; single treated: metformin 500 mg/kg, YMJHT 400 mg/kg; daily 28 days
Experimental: as §1, §2, §3
(4) Kidney protecting effect: kidney weights, changes in blood BUN and creatinine, histopathological findings on kidney—numbers of degenerated renal tubules and glomeruli
as §4

STZ-induced diabetes rat [5] = assay: STZ-induced diabetes rats: antihyperlipidemic effect; format: in vivo, Sprague-Dawley (SD) rats; settings: vs STZ control; single treated: metformin 500 mg/kg, YMJHT 400 mg/kg; daily 28 days
Experimental: as §1, §2, §3

STZ-induced diabetes rat [6] = assay: STZ-induced diabetes rats: immune activity effect (thymus, spleen); format: in vivo, Sprague-Dawley (SD) rats; settings: vs STZ control; single treated: metformin 500 mg/kg, YMJHT 400 mg/kg; daily 28 days
Experimental: as §1, §2, §3
(6) Immune activity effect: thymus and spleen weights and histopathological findings—changes in spleen thickness, the number of white pulps and diameter, changes in thymus lobules and cortex thicknesses
as §4

STZ-induced diabetes rat [7] = assay: STZ-induced diabetes rats: ocular protecting effect; format: in vivo, Sprague-Dawley (SD) rats; settings: vs STZ control; single treated: metformin 500 mg/kg, YMJHT 400 mg/kg; daily 28 days
Experimental: as §1, §2, §3

STZ-induced diabetes rat [8] = assay: STZ-induced diabetes rats: antioxidative defense system in kidney; format: in vivo, Sprague-Dawley (SD) rats; settings: vs STZ control; single treated: metformin 500 mg/kg, YMJHT 400 mg/kg; daily 28 days
Experimental: as §1, §2, §3
(8) Change in antioxidative defense system in kidney: lipid peroxidation in kidney (nM of malondialdehyde (MDA)/g protein), endogenous antioxidant—glutathione (GSH) content (nM/g protein), antioxidant enzyme—Changes in catalase and superoxide dismutase (SOD) activities (U/mg protein)

in vivo = settings: male, SD, rat, plasma, po, 500 mg/kg
[9] = before administration, single treated groups: metformin 500 mg/kg
[10] = single treated: metformin 500 mg/kg, daily 28 days

For `CN(C)C(=N)N=C(N)N` [metformin], the “Body weight gains during the diabetes induction, change” value (STZ-induced diabetes rat [1]; [9]) was 45.45%, the “Body weight gains during the 28-day administration, change” value (STZ-induced diabetes rat [1]; [10]) was 193.31% and the “Blood sugar level at 21 days after the STZ administration, change” value (STZ-induced diabetes rat [2]; [9]) was 1.68%. The “Blood sugar level at 28 days after the STZ administration, change” value (STZ-induced diabetes rat [2]; [10]) was −27.25%, the “Blood sugar variation from 21 days after the STZ administration to 28 days after the administration of a candidate material, change” value (STZ-induced diabetes rat [2]; [10]) was −59.39% and the “Mean diameters of the pancreatic islets, change” value (STZ-induced diabetes rat [2]; [10]) was 97.80%. The “Numbers of insulin immunoreactive cells in the pancreatic islet, change” value (STZ-induced diabetes rat [2]; [10]) was 202.99%, the “Numbers of pancreatic islets per unit area, change” value (STZ-induced diabetes rat [2]; [10]) was 120.93% and the “Numbers of the glucagon immunoreactive cells in the pancreatic islet, change” value (STZ-induced diabetes rat [2]; [10]) was −27.78%. For the same compound, the “Pancreas absolute weights, change” value (STZ-induced diabetes rat [2]; [10]) was 7.95%, the “Relative pancreas weights with respect to the body weight, change” value (STZ-induced diabetes rat [2]; [10]) was −7.49% and the “Absolute weight of the liver, change” value (STZ-induced diabetes rat [3]) was −14.38%. For the same compound, the “Blood ALT content, change” value (STZ-induced diabetes rat [3]) was −32.72%, the “Blood AST content, change” value (STZ-induced diabetes rat [3]) was −32.82% and the “Hepatic degeneration rate, change” value (STZ-induced diabetes rat [3]) was −29.61%. The “Number of mean hepatocytes per unit area, change” value (STZ-induced diabetes rat [3]) was 60.58%, the “Relative weight of the liver, change” value (STZ-induced diabetes rat [3]) was −27.69% and the “Absolute weight of the kidney, change” value (STZ-induced diabetes rat [4]) was −21.29%. For the same compound, the “Blood BUN content, change” value (STZ-induced diabetes rat [4]) was −31.69%, the “Blood creatinine content, change” value (STZ-induced diabetes rat [4]) was −31.29% and the “Number of degenerated glomeruli, change” value (STZ-induced diabetes rat [4]) was −36.94%. For the same compound, the “Number of degenerated renal tubules, change” value (STZ-induced diabetes rat [4]) was −29.90%, the “Relative weight of the kidney, change” value (STZ-induced diabetes rat [4]) was −32.41% and the “Blood HDL content, change” value (STZ-induced diabetes rat [5]) was 27.12%. For the same compound, the “Blood LDL content, change” value (STZ-induced diabetes rat [5]) was −29.08%, the “Total cholesterol content in blood, change” value (STZ-induced diabetes rat [5]) was −30.57% and the “Triglyceride content in blood, change” value (STZ-induced diabetes rat [5]) was −29.72%. The “Absolute weight of the spleen, change” value (STZ-induced diabetes rat [6]) was 31.35%, the “Absolute weight of the thymus, change” value (STZ-induced diabetes rat [6]) was 73.03% and the “Mean diameter of the white pulp, change” value (STZ-induced diabetes rat [6]) was 101.18%. For the same compound, the “Number of white pulps per unit area (100 mm^2), change” value (STZ-induced diabetes rat [6]) was 76.53%, the “Relative weight of the spleen, change” value (STZ-induced diabetes rat [6]) was 12.17% and the “Relative weight of the thymus, change” value (STZ-induced diabetes rat [6]) was 50.71%. For the same compound, the “Total thickness of the spleen, change” value (STZ-induced diabetes rat [6]) was 36.43%, the “Total thickness of the thymus cortex, change” value (STZ-induced diabetes rat [6]) was 78.00% and the “Total thickness of the thymus lobules, change” value (STZ-induced diabetes rat [6]) was 198.88%. For the same compound, the “Lens damage score, change” value (STZ-induced diabetes rat [7]) was −33.33%, the “Number of blood vessels present in an internal limiting membrane, change” value (STZ-induced diabetes rat [7]) was −44.55% and the “Observer-based scores for cataract, change” value (STZ-induced diabetes rat [7]) was −38.89%. The “Quantitative image scores for cataract, change” value (STZ-induced diabetes rat [7]) was −40.56%, the “Thickness of the damaged part of the lens, change” value (STZ-induced diabetes rat [7]) was −46.34% and the “Thickness of the inner nuclear layer in the retina, change” value (STZ-induced diabetes rat [7]) was 44.29%. For the same compound, the “Thickness of the plexiform layer in the retina, change” value (STZ-induced diabetes rat [7]) was 32.03%, the “Total thickness of the retina, change” value (STZ-induced diabetes rat [7]) was 33.45% and the “Catalase activity in the renal tissue, change” value (STZ-induced diabetes rat [8]) was 48.59%. The “Content of the endogenous antioxidant in the renal tissue, GSH, change” value (STZ-induced diabetes rat [8]) was 64.65%, the “MDA content in the kidney tissue (lipid peroxidation indicator), change” value (STZ-induced diabetes rat [8]) was −32.56% and the “SOD activity in the renal tissue, change” value (STZ-induced diabetes rat [8]) was 51.47%. The Cmax (in vivo) was 20200 ± 3420 ng/mL.
